Reference: PMC9176790 (PLoS Pathogens, 2022)

Molecular target: RaaR (RSp0912) (Ralstonia pseudosolanacearum, UniProt Q8XRE2)
Assay: biochemical

Sequence of RaaR (RSp0912) (Q8XRE2 1-313 limits assumed): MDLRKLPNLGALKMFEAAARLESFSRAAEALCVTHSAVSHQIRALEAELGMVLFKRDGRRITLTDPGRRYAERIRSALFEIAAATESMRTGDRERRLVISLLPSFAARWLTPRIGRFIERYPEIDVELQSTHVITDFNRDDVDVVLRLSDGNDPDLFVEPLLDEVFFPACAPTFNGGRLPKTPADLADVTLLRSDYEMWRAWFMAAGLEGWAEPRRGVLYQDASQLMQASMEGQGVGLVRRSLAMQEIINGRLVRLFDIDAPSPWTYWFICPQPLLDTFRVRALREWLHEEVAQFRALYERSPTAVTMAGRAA

For Nc1ccccc1C(=O)O [anthranilic acid], the Kd was 3.63 µM.
